Test results published in patent US20240368123A1, “AROMATIC RING-CONTAINING BIOLOGICAL ANTAGONIST, AND PREPARATION METHOD THEREFOR AND USE THEREOF” (SHANGHAI HANSOH BIOMEDICAL CO., LTD., priority 2021, published 2024).
pIC50: −log10 of the molar value.

Molecular target: T1, AT1 receptors (Homo sapiens, UniProt P30556)
T1 construct: host or cells: HEK293
T1 sequence (P30556 1-359): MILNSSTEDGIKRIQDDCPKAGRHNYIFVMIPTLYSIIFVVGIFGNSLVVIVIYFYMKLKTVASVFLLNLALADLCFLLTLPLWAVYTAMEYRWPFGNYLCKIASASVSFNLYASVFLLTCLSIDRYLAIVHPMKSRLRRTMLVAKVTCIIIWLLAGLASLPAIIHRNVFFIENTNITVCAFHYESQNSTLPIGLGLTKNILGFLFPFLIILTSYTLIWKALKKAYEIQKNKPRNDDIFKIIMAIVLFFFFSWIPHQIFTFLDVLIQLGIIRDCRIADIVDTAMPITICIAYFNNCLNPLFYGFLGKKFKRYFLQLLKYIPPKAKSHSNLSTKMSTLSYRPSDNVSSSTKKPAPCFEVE
Experiment: Effect on calcium current in cells stably expressing AT1 receptors (FLIPR, antagonist mode)
Assay type: cell-based
Settings: HEK293-AT1 cells, Fluo-8 AM, FLIPR Tetra; read-out: IC50 values of compounds on calcium current in cells stably expressing AT1 receptors
Excerpt: Test Example 1. Determination of the Effect of the Compounds of the Present Invention on Calcium Current in Cells Stably Expressing AT1 Receptors
Antagonistic effect of test compounds on HEK293-AT1 cell activity
• DMEM, high glucose (Gibco: 12100); • Fetal bovine serum (Biosera: FB-1058/500); • P/S (Biosera: XC-A4122); • 5× Matrigel (Corning: 354230); • HBSS (Sigma: H1387); • HEPES (Invitrogen: 15630080); • Fluo-8 AM (AAT Bioquest: 21080); • Probenecid (Sigma: P8761); • Pluronic F-127 (Sigma: P2443-250G); • Angiotensin III TFA (MCE: HY-113035A); • Irbesartan (MCE: HY—B0202); • 1000× Fluo-8 AM (2 mM): Fluo-8 AM was dissolved in DMSO, the mixture was shaken for 1-2 min, sub-packaged and stored at −20° C.; • Complete culture medium: DMEM+10% FBS+1×P/S; • Cell seeding medium: DMEM+10% FBS+1×PS; • Experimental buffer 1: 1×HBSS+20 mM HEPES+1 mM Probenecid+0.025% Pluronic F-127; • Experimental buffer 2: 1×HBSS+20 mM HEPES+0.075% Pluronic F-127; • 1× Matrigel: 5× Matrigel was diluted with DMEM; • Cell line: HDB HEK293-AT1.
• 1) HEK293-AT1 cell line was cultured in complete culture medium at 37° C., 5% CO2 to 70%-90% confluence. • 2) the 384-well cell plate was coated with 1× Matrigel with 5 μL/well at room temperature for 10 to 30 min. • 3) the cells were digested and resuspended in cell seeding medium, inoculation was performed at 8,000 cells/well/20 μL in a 384-well cell culture plate, and the cells were cultured at 37° C., 5% CO2 for 24 h. • 4) the cell culture plate was taken out of the CO2 incubator and equilibrated at room temperature for 10 min. • 5) 1000× Fluo-8 AM was taken and diluted to 1× Fluo-8 AM with experimental buffer 1 that has been equilibrated to room temperature, with a concentration of 2 μM. • 6) the culture medium was removed from the cell culture plate, 20 μL of 1× Fluo-8 AM was added to each well, the mixture was centrifuged at 300 rpm for 60 seconds at room temperature, and incubated at room temperature in the dark for 1 h. • 7) positive control compound and test compound working solution (3×) were formulated: • (1) instrument Bravo was used to dilute the compound to 11 concentration points on the 384-well Echo compound plate (LABCYTE: LP-0200); • (2) instrument ECHO was used to transfer 90 nL of compound per well (compound storage concentration, such as the highest concentration point 10 mM) to the 384-well compound plate (PE: 6008590); • (3) Multidrop Combi was used to add 30 μL of experimental buffer 2 to the 384-well compound plate (PE: 6008590), the positive control compound and test compound were diluted to 30 μM (3×), and placed at room temperature until use. • 8) FLIPR Tetra was used to add 10 μL of diluted 3× compound into the experimental well of the corresponding 384-well cell plate, the compound and cells were incubated for 10 min at room temperature, then 10 μL of diluted 4× agonist was added, and the data was read and collected at the same time.
FLIPR Tetra was used to read and collect the fluorescence signal value (RFU). The maximum RFU value was used to calculate the percent activation data based on the readings of the Low control (DMSO control) and High control (100 nM positive compound) experimental groups {% activation rate=(RFUsample−RFUlow control)/(RFUhigh control−RFUlow control)×100}. The concentration of the test compound was 11 concentrations after diluting the reaction system 3 times, ranging from 10 uM to 0.17 nM.

SMILES	pIC50
CCCCC1=NC2(CCCC2)C(=O)N1Cc1ccc(-c2ccccc2S(=O)(=O)Nc2noc(C)c2Br)c(COCC)c1 [Example 46, 2-[4-[(2-butyl-4-oxo-1,3-diazaspiro[4.4]non-1-en-3-yl)methyl]-2-(ethoxymethyl)phenyl]-N-(4-bromo-5-methyl-isoxazol-3-yl)benzsulfamide]	8.41
[2H]C([2H])(OCC)c1cc(CN2C(=O)C3(CCCC3)N=C2CCCC)ccc1-c1ccccc1S(=O)(=O)Nc1noc(C)c1Cl [Example 49, 4′-((2-butyl-4-oxo-1,3-diazospiro[4.4]non-1-en-3-yl)methyl)-N-(4-chloro-5-methylisoxazol-3-yl)-2′-(ethoxydeuteriummethyl)-[1,1′-biphenyl]-2-sulfonamide]	8.14
CCCCC1=NC2(CC3CC3C2)C(=O)N1Cc1ccc(-c2ccccc2S(=O)(=O)Nc2noc(C)c2Cl)c(COCC)c1 (stereo not drawn) [Example 65, 4′-((2′-butyl-5′-oxaspiro[bicyclo[3.1.0]hexane-3,4′-imidazole]-1′(5′H)-yl)methyl)-N-(4-chloro-5-methylisoxazol-3-yl)-2′-(ethoxymethyl)-[1,1′-biphenyl]-2-sulfonamide]	8.36
CCCCC1=NC2(CCCCC2)C(=O)N1Cc1ccc(-c2ccccc2S(=O)(=O)Nc2noc(C)c2Cl)c(COCC)c1 [Example 68, 4′-((2-2-4-4-oxo-1,3-diazaspiro[4.5]dec-1-en-3-yl)methyl)-N-(4-chloro-5-methylisoxazol-3-yl)-2′-(ethoxymethyl)-[1,1′-biphenyl]-2-sulfonamide]	8.06
CCCCC1=NC2(CCCC2)C(=O)N1Cc1ccc(-c2ccccc2S(=O)(=O)Nc2noc(C)c2Cl)c(COCC(F)(F)F)c1 [Example 86]	8.66
CCCCC1=NC2(CC3CC3C2)C(=O)N1Cc1ccc(-c2ccccc2S(=O)(=O)Nc2noc(C)c2C)c(COCC)c1 (stereo not drawn) [Example 87, 4′-((2′-butyl-5′-oxaspiro[bicyclo[3.1.0]hexane-3,4′-imidazole]-1′(5′H)-yl)methyl)-N-(4,5-dimethylisoxazol-3-yl)-2′-(ethoxymethyl)-[1,1′-biphenyl]-2-sulfonamide]	8.02
